Experimental data published in patent US7763602B2, “Pyrrole derivatives as antimycobacterial compounds” (priority 2002, dated 2010).
In brackets after ≈: the same amount, converted by molar mass.

test system: M. tuberculosis clinical isolates, resistant; test: microbe, parasite or virus in culture; type: cell-based, Mycobacterium tuberculosis; details: Mycobacterium tuberculosis, read-out: MIC (μg/ml) M. tuberculosis Resistant (n = 26)

Row | Compound | MIC
1 | COc1ccccc1N1CCN(Cc2cc(-c3ccc(Cl)cc3)n(-c3ccc(Cl)cc3)c2C)CC1 [Compound No. 2, 1-{[1,5-bis(4-chlorophenyl)-2-methylpyrrol-3-yl]methyl}-4-(2-methoxyphenyl) piperazine] | 0.25 to 1 µg/mL (≈ 0.494 to 1.97 µM)

same assay, conditions: Mycobacterium tuberculosis, read-out: MIC (μg/ml) against Clinical isolates Resistant

Row | Compound | MIC
2 | Cc1c(CN2CCN(c3ccc(F)cc3)CC2)cc(-c2ccccc2)n1-c1ccc(F)cc1F [compound 51, 1-{[1-(2,4-difluorophenyl)-2-methyl-5-phenylpyrrol-3-yl]methyl}-4-(4-fluorophenyl)piperazine] | > 16 µg/mL
3 | COc1ccccc1N1CCN(Cc2cc(-c3ccccc3)n(-c3ccc(F)cc3F)c2C)CC1 [compound 52, 1-{[1-(2,4-difluorophenyl)-2-methyl-5-phenylpyrrol-3-yl]methyl}-4-(2-methoxyphenyl)piperazine] | 8 to 16 µg/mL (≈ 16.9 to 33.8 µM)
4 | COc1ccccc1N1CCN(Cc2cc(C)n(-c3ccc(F)cc3F)c2-c2ccccc2)CC1 [compound 56, 1-{[1-(2,4-difluorophenyl)-5-methyl-2-phenylpyrrol-3-yl]methyl}-4-(2-methoxyphenyl) piperazine] | 8 to 16 µg/mL (≈ 16.9 to 33.8 µM)
5 | Cc1cc(CN2CCN(c3cccc(C(F)(F)F)c3)CC2)c(-c2ccccc2)n1-c1ccc(F)cc1F [compound 57, 1-{[1-(2,4-difluorophenyl)-5-methyl-2-phenylpyrrol-3-yl]methyl}-4-(3-trifluoromethylphenyl)piperazine] | > 16 µg/mL
6 | Cc1c(CN2CCN(c3ccccn3)CC2)cc(-c2ccc(Cl)cc2)n1-c1ccc(F)cc1F [compound 47, 1-{[1-(2,4-difluorophenyl)-5-(4-chlorophenyl)-2-methylpyrrol-3-yl]methyl}-4-(2-pyridyl)piperazine] | 1 to 4 µg/mL (≈ 2.09 to 8.35 µM)
7 | CO[C@H]1/C=C/O[C@@]2(C)Oc3c(C)c(O)c4c(O)c(c(/C=N/N5CCN(C)CC5)c(O)c4c3C2=O)NC(=O)/C(C)=C\C=C\[C@H](C)[C@H](O)[C@@H](C)[C@@H](O)[C@@H](C)[C@H](OC(C)=O)[C@@H]1C [Rifampicin, reference compound] | 4 to 16 µg/mL (≈ 4.86 to 19.4 µM)
8 | Cc1c(CN2CCN(c3ccccn3)CC2)cc(-c2ccccc2)n1-c1ccc(F)cc1F [compound 54, 1-{[1-(2,4-difluorophenyl)-2-methyl-5-phenylpyrrol-3-yl]methyl}-4-(2-pyridyl) piperazine] | 4 µg/mL (≈ 9 µM)
9 | Cc1ccc(Cl)cc1N1CCN(Cc2cc(-c3ccc(Cl)cc3)n(-c3ccc(Cl)cc3)c2C)CC1 [compound 10, 1-{[1,5-bis(4-chlorophenyl)-2-methylpyrrol-3-yl]methyl}-4-(5-chloro-2-methylphenyl) piperazine] | 1 to 4 µg/mL (≈ 1.91 to 7.62 µM)
10 | COc1ccccc1N1CCN(Cc2cc(-c3ccc(Cl)cc3)n(-c3ccc(Cl)cc3)c2C)CC1 [Compound No. 2, 1-{[1,5-bis(4-chlorophenyl)-2-methylpyrrol-3-yl]methyl}-4-(2-methoxyphenyl) piperazine] | 0.25 to 1 µg/mL (≈ 0.494 to 1.97 µM)
11 | Cc1c(CN2CCN(c3ccc(F)cc3)CC2)cc(-c2ccc(Cl)cc2)n1-c1ccc(Cl)cc1 [Compound No. 1, 1-{[1,5-bis(4-chlorophenyl)-2-methylpyrrol-3-yl]methyl}-4-(4-fluorophenyl) piperazine] | 2 to 4 µg/mL (≈ 4.04 to 8.09 µM)
12 | Cc1c(CN2CCN(c3ccccn3)CC2)cc(-c2ccc(Cl)cc2)n1-c1ccc(Cl)cc1 [compound 4, 1-{[1,5-bis(4-chlorophenyl)-2-methylpyrrol-3-yl]methyl}-4-(2-pyridyl) piperazine] | 0.5 to 4 µg/mL (≈ 1.05 to 8.38 µM)

same assay, conditions: Table I; agar dilution

Row | Compound | MIC (μg/ml) against Clinical isolates Resistant
13 | Cc1cc(CN2CCN(c3ccc(F)cc3)CC2)c(-c2ccc(Cl)cc2)n1NC(=O)c1cnccn1 [compound 41, N-(2-(4-chlorophenyl)-3-{[4-(4-fluorophenyl)piperazinyl]methyl}-5-methylpyrrolyl)pyrazin-2-ylcarboxamide] | >16.0 µg/mL
14 | Cc1c(CN2CCN(Cc3ccc4c(c3)OCO4)CC2)cc(-c2ccc(Cl)cc2)n1-c1cccc2ccccc12 [compound 62, 5-[(4-{[5-(4-chlorophenyl)-2-methyl-1-naphthylpyrrol-3-yl]methyl}-piperazinyl)methyl]-2H-benzo[d]1,3-dioxolane] | >16.0 µg/mL
15 | Cc1c(CN2CCN(c3cccc(C(F)(F)F)c3)CC2)cc(-c2ccc(Cl)cc2)n1-c1cccc2ccccc12 [compound 60, 1-{[5-(4-chlorophenyl)-2-methyl-1-naphthylpyrrol-3-yl]methyl}-4-(3-trifluoromethylphenyl)piperazine] | 4.0 to 16.0 µg/mL
16 | COc1ccccc1N1CCN(Cc2cc(-c3ccccc3)n(NC(=O)c3cnccn3)c2C)CC1 [compound 26, N-(3-{[4-(2-methoxyphenyl)piperazinyl]methyl}-2-methyl-5-phenylpyrrolyl) pyrazin-2-ylcarboxamide] | 4.0 to 16.0 µg/mL
17 | Cc1c(CN2CCN(c3ccc(F)cc3)CC2)cc(-c2ccccc2)n1NC(=O)c1cnccn1 [compound 25, N-(3-{[4-(4-fluorophenyl)piperazinyl]methyl}-2-methyl-5-phenylpyrrolyl)pyrazin-2-ylcarboxamide] | 4.0 µg/mL (≈ 8.5 µM)
18 | Cc1c(CN2CCN(c3ccccn3)CC2)cc(-c2ccccc2)n1NC(=O)c1cnccn1 [compound 28, N-(3-{[4-(2-pyridyl)piperazinyl]methyl}-2-methyl-5-phenylpyrrolyl)pyrazin-2-ylcarboxamide] | 4.0 to 16.0 µg/mL
19 | Cc1c(CN2CCN(Cc3ccc4c(c3)OCO4)CC2)cc(-c2ccccc2)n1NC(=O)c1ccncc1 [compound 17, N-(3-{[4-(2H-benzo[d]1,3-dioxolan-5-ylmethyl)piperazinyl]methyl}-2-methyl-5-phenylpyrrolyl)-4-pyridylcarboxamide] | 4.0 to 8.0 µg/mL
20 | Cc1c(CN2CCN(Cc3ccc4c(c3)OCO4)CC2)cc(-c2ccc(Cl)cc2)n1-c1ccc(Cl)cc1 [Compound No. 8, 5-[(4-{[1,5-bis(4-chlorophenyl)-2-methylpyrrol-3-yl]methyl}piperazinyl)methyl]-2H-benzo[d]1,3-dioxolane] | 1.0 to 4.0 µg/mL
21 | CCC(CO)n1c(C)c(CN2CCSCC2)c(CO)c1-c1ccccc1 (stereo not shown) [compound 90, 2-[3-(hydroxymethyl)-5-methyl-2-phenyl-4-(1,4-thiazaperhydroin-4-ylmethyl)-pyrrolyl]butan-1-ol] | >16.0 µg/mL
22 | Cc1cc(CN2CCN(c3cccc(C(F)(F)F)c3)CC2)c(-c2ccccc2)n1NC(=O)c1ccncc1 [Compound No. 23, N-(3-{[4-(3-trifluoromethylphenyl)piperazinyl]methyl}-5-methyl-2-phenylpyrrolyl)-4-pyridylcarboxamide] | 0.25 to 1.0 µg/mL
23 | Cc1cc(CN2CCN(C(c3ccccc3)c3ccccc3)CC2)c(-c2ccccc2)n1NC(=O)c1cnccn1 [compound 36, N-(3-{[4-(diphenylmethyl)piperazinyl]methyl}-5-methyl-2-phenylpyrrolyl) pyrazin-2-ylcarboxamide] | 1.0 to 4.0 µg/mL
24 | Cc1c(CN2CCN(c3cccc(C(F)(F)F)c3)CC2)cc(-c2ccccc2)n1NC(=O)c1cnccn1 [compound 27, N-(3-{[4-(3-trifluoromethylphenyl)piperazinyl]methyl}-2-methyl-5-phenylpyrrolyl)pyrazin-2-ylcarboxamide] | 8.0 µg/mL (≈ 15.4 µM)
25 | Cc1c(CN2CCN(Cc3ccccc3)CC2)cc(-c2ccccc2)n1NC(=O)c1ccncc1 [compound 15, N-(2-methyl-5-phenyl-3-{[4-benzylpiperazinyl]methyl}pyrrolyl)-4-pyridylcarboxamide] | 4.0 to 8.0 µg/mL
26 | Cc1c(CN2CCN(C(c3ccccc3)c3ccccc3)CC2)cc(-c2ccccc2)n1NC(=O)c1cnccn1 [compound 30, N-(3-{[4-(diphenylmethyl)piperazinyl]methyl}-2-methyl-5-phenylpyrrolyl)-pyrazin-2-ylcarboxamide] | 4.0 to 16.0 µg/mL
27 | Cc1c(CN2CCN(c3ccccn3)CC2)cc(-c2ccccc2)n1NC(=O)c1ccncc1 [compound 14, N-(3-{[4-(2-pyridyl)piperazinyl]methyl}-2-methyl-5-phenylpyrrolyl)-4-pyridylcarboxamide] | 4.0 to 8.0 µg/mL
28 | Cc1cc(CN2CCN(c3cccc(C(F)(F)F)c3)CC2)c(-c2ccc(Cl)cc2)n1-c1cccc2ccccc12 [compound 64, 1-{[2-(4-chlorophenyl)-5-methyl-1-naphthylpyrrol-3-yl]methyl}-4-(3-trifluoromethylphenyl)piperazine] | >16.0 µg/mL
29 | Cc1cc(CN2CCN(Cc3ccc4c(c3)OCO4)CC2)c(-c2ccccc2)n1NC(=O)c1cnccn1 [compound 35, N-(3-{[4-(2H-benzo[3,4-d]1,3-dioxolan-5-ylmethyl)piperazinyl]methyl}-5-methyl-2-phenylpyrrolyl)pyrazin-2-ylcarboxamide] | >16.0 µg/mL
30 | COc1ccccc1N1CCN(Cc2cc(-c3ccccc3)n(NC(=O)c3ccncc3)c2C)CC1 [compound 13, N-(3-{[4-(2-methoxyphenyl)piperazinyl]methyl}-2-methyl-5-phenylpyrrolyl)-4-pyridylcarboxamide] | 1.0 to 2.0 µg/mL
31 | Cc1c(CN2CCSCC2)cc(-c2ccc(Cl)cc2)n1NC(=O)c1ccncc1 [compound 89, N-[5-(4-chlorophenyl)-2-methyl-3-(1,4-thiazaperhydroin-4-ylmethyl)pyrrolyl]-4-pyridylcarboxamide] | 4.0 to 8.0 µg/mL
32 | Cc1c(CN2CCCC2)cc(-c2ccccc2)n1NC(=O)c1ccncc1 [compound 19, N-[2-methyl-5-phenyl-3-(pyrrolidinylmethyl)pyrrolyl]-4-pyridylcarboxamide] | >16.0 µg/mL
33 | Cc1c(CN2CCN(C)CC2)cc(-c2ccccc2)n1NC(=O)c1ccncc1 [compound 16, N-{2-methyl-3-[(4-methylpiperazinyl)methyl]-5-phenylpyrrolyl}-4-pyridylcarboxamide] | 4.0 to 16.0 µg/mL
34 | Cc1c(CN2CCN(c3ccccn3)CC2)cc(-c2ccc(Cl)cc2)n1-c1cccc2ccccc12 [compound 61, 1-{[5-(4-chlorophenyl)-2-methyl-1-naphthylpyrrol-3-yl]methyl}-4-(2-pyridyl) piperazine] | 4.0 to 8.0 µg/mL
